From ChEMBL document CHEMBL4706551, “Rational design of new multitarget histamine H receptor ligands as potential candidates for treatment of Alzheimer's disease” (Eur J Med Chem, 2020)
Activity calls are given as the source filed them.

Tests used:
Rattus norvegicus [1] = assay: Analgesic activity in Wistar (Krf:WI) rat assessed as inhibition of carrageenan-induced mechanical inflammatory hyperalgesia by measuring paw withdrawl threshold at 30 mg/kg treated prior to carrageenan challenge and measured after 3 to 24 hrs (reference value: 88.4 to 90.9 %); assay type: functional; design: scale not given: the % may be the effect or the level left; conditions: time 3-24 hrs
Rattus norvegicus [2] = assay: Antiinflammatory activity against Wistar (Krf:WI) rat assessed as reduction in carragenan-induced paw edema at 30 mg/kg treated prior to carrageenan challenge and measured after 1 hr by plethysmometry relative to control; assay type: functional
[3] = target: Acetylcholinesterase (Electrophorus electricus) (UniProt O42275); assay: Non-competitive inhibition of Electric eel AChE using ATCI as substrate incubated for 5 mins followed by substrate addition and measured after 5 mins by spectrophotometric based Cornish-Bowden plot analysis; conditions: time 10.0 min
Acetylcholinesterase (Electrophorus electricus), sequence (O42275 24-633 limits assumed): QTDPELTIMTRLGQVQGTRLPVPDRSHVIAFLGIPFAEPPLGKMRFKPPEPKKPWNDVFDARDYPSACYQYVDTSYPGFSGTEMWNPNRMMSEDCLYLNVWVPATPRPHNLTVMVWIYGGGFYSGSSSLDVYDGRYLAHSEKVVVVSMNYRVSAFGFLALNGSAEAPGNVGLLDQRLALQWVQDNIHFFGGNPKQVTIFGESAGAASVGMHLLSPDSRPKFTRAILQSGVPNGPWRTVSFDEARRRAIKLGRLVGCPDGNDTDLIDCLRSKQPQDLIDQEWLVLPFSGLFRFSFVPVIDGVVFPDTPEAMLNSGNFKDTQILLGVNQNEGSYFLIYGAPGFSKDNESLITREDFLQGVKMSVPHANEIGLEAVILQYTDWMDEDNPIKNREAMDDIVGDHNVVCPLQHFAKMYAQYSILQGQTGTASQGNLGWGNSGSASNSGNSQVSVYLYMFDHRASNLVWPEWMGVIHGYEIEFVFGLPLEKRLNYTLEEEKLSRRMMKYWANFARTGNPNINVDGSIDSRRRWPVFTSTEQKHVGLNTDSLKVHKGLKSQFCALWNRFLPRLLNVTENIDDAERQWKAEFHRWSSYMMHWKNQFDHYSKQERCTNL

Rattus norvegicus [4] = assay: Antiinflammatory activity against Wistar (Krf:WI) rat assessed as reduction in carragenan-induced paw edema at 22.5 mg/kg treated prior to carrageenan challenge and measured after 6 hrs by plethysmometry relative to control; assay type: functional
[5] = target: Cholinesterase (Equus caballus) (UniProt P81908); assay: Non-competitive inhibition of equine serum BChE using BTCI as substrate incubated for 5 mins followed by substrate addition and measured after 5 mins by spectrophotometric based Cornish-Bowden plot analysis; assay type: cell-free; conditions: time 10.0 min
Cholinesterase (Equus caballus), sequence (P81908 whole entry): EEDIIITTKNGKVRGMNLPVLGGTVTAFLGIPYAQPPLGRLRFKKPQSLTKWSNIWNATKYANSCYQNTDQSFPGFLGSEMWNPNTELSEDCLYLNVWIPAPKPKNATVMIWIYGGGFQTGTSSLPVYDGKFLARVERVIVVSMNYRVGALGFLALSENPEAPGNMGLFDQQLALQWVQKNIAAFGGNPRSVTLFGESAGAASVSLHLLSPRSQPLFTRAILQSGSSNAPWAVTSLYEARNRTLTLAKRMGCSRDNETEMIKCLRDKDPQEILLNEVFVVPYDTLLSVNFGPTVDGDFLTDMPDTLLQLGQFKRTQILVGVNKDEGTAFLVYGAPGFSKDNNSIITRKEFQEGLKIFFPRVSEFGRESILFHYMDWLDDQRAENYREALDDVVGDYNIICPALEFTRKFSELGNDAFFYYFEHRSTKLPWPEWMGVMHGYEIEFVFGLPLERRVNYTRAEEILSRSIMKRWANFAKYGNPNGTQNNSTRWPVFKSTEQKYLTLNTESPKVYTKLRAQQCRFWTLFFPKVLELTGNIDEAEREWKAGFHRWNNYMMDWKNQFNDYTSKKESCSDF

Mus musculus [6] = assay: (§1) Antiallodynic activity in oxaliplatin-induced peripheral neuropathy pain CD-1 mouse model assessed as inhibition of early-phase tactile allodynia by measuring pain sensitivity threshold at 30 mg/kg administered with compound intraperitoneally at 3 hrs after oxaliplatin stimulation and measured after 30 mins by von Frey test (reference value: 61.2 %); assay type: functional; design: scale not given: the % may be the effect or the level left; conditions: 0.5 h
Mus musculus [7] = assay: as §1, with “at 22.5” for “at 30”; assay type: functional; design: scale not given: the % may be the effect or the level left; conditions: 0.5 h
MAO-A [8] = target: T1, MAO-A (Homo sapiens, UniProt P21397); assay: Inhibition of recombinant human MAO-A expressed in baculovirus infected BTI cells at 10 uM using p-tyramine as substrate by fluorometric assay relative to control; conditions: probe p-tyramine
T1 sequence (P21397 whole entry): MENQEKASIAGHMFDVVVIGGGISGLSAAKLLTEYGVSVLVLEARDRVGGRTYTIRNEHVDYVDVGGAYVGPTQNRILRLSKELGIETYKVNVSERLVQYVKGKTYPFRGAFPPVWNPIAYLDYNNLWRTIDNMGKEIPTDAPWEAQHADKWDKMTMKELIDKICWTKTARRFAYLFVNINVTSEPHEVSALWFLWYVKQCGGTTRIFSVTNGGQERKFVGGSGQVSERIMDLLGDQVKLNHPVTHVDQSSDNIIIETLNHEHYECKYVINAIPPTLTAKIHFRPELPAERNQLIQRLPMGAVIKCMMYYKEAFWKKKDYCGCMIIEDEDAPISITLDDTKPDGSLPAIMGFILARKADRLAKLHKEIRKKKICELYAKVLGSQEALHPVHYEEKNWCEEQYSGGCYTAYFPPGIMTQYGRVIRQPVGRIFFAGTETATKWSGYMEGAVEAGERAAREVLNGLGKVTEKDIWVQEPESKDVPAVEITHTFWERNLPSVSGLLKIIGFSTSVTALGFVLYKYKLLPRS

Rattus norvegicus [9] = assay: Antiinflammatory activity against Wistar (Krf:WI) rat assessed as reduction in carragenan-induced paw edema at 30 mg/kg treated prior to carrageenan challenge and measured after 3 hrs by plethysmometry relative to control; assay type: functional
[10] = target: Acetylcholinesterase (Electrophorus electricus) (UniProt O42275); assay: Non-competitive inhibition of Electric eel AChE using ATCI as substrate incubated for 5 mins followed by substrate addition and measured after 5 mins by spectrophotometric based Lineweaver-Burk plot analysis; conditions: time 10.0 min
Rattus norvegicus [11] = assay: Analgesic activity in carragenan-induced thermal hyperalgesia model of Wistar (Krf:WI) rat assessed as latency of nociceptive response for radiant heat stimulation at 30 mg/kg treated prior to carrageenan challenge and measured after 3 hrs (reference value: 50.3%); assay type: functional
MAO-A [12] = target: T1, MAO-A; assay: in vitro; conditions: probe p-tyramine
Description: Inhibition of recombinant human MAO-A expressed in baculovirus infected BTI cells at 1 uM using p-tyramine as substrate by fluorometric assay relative to control

Mus musculus [13] = assay: (§2) Analgesic activity in formalin-induced nociception CD-1 mouse model assessed as reduction in pain behaviour by measuring less licking of formalin injected hind paw compound administered intraperitoneally prior to formalin induction and measured during early phase (0 to 5 mins after formalin injection) by formalin test; assay type: functional; conditions: CD-1, ip, time 0-5 min
Rattus norvegicus [14] = assay: Memory enhancement effect in dizocilpine-induced Wistar (Krf:WI) rat model of amnesia assessed as increase in step through latency administered with compound intraperitoneally and measured after 30 to 45 mins by step-through passive avoidance test; assay type: functional, organism-based; conditions: dose 1.25-5 mg/kg, time 30-45 min
Histamine H3 receptor = Histamine H3 receptor (Homo sapiens, UniProt Q9Y5N1); assay: biochemical
Histamine H3 receptor, sequence (Q9Y5N1 whole entry): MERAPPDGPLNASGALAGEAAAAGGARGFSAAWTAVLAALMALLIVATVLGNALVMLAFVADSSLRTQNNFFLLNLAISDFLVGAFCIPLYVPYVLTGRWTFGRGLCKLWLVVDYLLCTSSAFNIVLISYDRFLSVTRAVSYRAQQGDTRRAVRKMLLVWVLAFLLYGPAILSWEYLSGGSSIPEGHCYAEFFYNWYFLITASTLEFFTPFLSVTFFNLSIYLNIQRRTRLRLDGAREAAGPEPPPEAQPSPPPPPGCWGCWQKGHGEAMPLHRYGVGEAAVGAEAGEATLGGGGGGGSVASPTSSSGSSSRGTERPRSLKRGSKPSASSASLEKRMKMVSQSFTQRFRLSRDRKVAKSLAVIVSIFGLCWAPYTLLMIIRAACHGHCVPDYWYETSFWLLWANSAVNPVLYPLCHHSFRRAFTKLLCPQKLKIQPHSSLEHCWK
Description: Displacement of [3H]N-alpha-methylhistamine from recombinant human histamine H3 receptor expressed in CHO-K1 cells by microbeta scintillation analysis

Rattus norvegicus [15] = assay: Analgesic activity in carragenan-induced thermal hyperalgesia model of Wistar (Krf:WI) rat assessed as latency of nociceptive response for radiant heat stimulation at 30 mg/kg treated prior to carrageenan challenge and measured after 1 hr (reference value: 71.4%); assay type: functional
Mus musculus [16] = assay: as §1, with “at 15” for “at 30”; assay type: functional; design: scale not given: the % may be the effect or the level left; conditions: 0.5 h
Rattus norvegicus [17] = assay: Analgesic activity in carragenan-induced thermal hyperalgesia model of Wistar (Krf:WI) rat assessed as latency of nociceptive response for radiant heat stimulation at 30 mg/kg treated prior to carrageenan challenge and measured after 24 hrs (reference value: 83.3%); assay type: functional
Rattus norvegicus [18] = assay: Analgesic activity in carragenan-induced thermal hyperalgesia model of Wistar (Krf:WI) rat assessed as latency of nociceptive response for radiant heat stimulation at 30 mg/kg treated prior to carrageenan challenge and measured after 2 hrs (reference value: 63.6%); assay type: functional
Mus musculus [19] = assay: as §1, with “late-phase” for “early-phase”, “7 days” for “3 hrs”, “65.3%)” for “61.2 %)”; assay type: functional; design: scale not given: the % may be the effect or the level left; conditions: 0.5 h
Mus musculus [20] = assay: as §2, with “late” for “early”, “(15” for “(0”, “30” for “5”; assay type: functional; conditions: CD-1, ip, time 15-30 min
Rattus norvegicus [21] = assay: Antiinflammatory activity against Wistar (Krf:WI) rat assessed as reduction in carragenan-induced paw edema at 22.5 mg/kg treated prior to carrageenan challenge and measured after 2 hrs by plethysmometry relative to control; assay type: functional
Mus musculus [22] = assay: as §1, with “of late-phase” for “of early-phase”, “at 15” for “at 30”, “at 7 days” for “at 3 hrs”, “value: 65.3%)” for “value: 61.2 %)”; assay type: functional; design: scale not given: the % may be the effect or the level left; conditions: 0.5 h
Rattus norvegicus [23] = assay: Analgesic activity in Wistar (Krf:WI) rat assessed as inhibition of carrageenan-induced mechanical inflammatory hyperalgesia by measuring paw withdrawl threshold at 22.5 mg/kg treated prior to carrageenan challenge and measured upto 24 hrs (reference value: 88.4 to 90.9 %); assay type: functional; design: scale not given: the % may be the effect or the level left; conditions: time hrs <=24
Mus musculus [24] = assay: as §1, with “threshold” for “threshold at 30 mg/kg”, “test” for “test (reference value: 61.2 %)”; assay type: functional, organism-based; conditions: dose 15-30 mg/kg
Rattus norvegicus [25] = assay: Antiinflammatory activity against Wistar (Krf:WI) rat assessed as reduction in carragenan-induced paw edema at 22.5 mg/kg treated prior to carrageenan challenge and measured after 3 hrs by plethysmometry relative to control; assay type: functional
Acetylcholinesterase = Acetylcholinesterase (Electrophorus electricus, UniProt O42275)
Acetylcholinesterase, sequence (O42275 whole entry): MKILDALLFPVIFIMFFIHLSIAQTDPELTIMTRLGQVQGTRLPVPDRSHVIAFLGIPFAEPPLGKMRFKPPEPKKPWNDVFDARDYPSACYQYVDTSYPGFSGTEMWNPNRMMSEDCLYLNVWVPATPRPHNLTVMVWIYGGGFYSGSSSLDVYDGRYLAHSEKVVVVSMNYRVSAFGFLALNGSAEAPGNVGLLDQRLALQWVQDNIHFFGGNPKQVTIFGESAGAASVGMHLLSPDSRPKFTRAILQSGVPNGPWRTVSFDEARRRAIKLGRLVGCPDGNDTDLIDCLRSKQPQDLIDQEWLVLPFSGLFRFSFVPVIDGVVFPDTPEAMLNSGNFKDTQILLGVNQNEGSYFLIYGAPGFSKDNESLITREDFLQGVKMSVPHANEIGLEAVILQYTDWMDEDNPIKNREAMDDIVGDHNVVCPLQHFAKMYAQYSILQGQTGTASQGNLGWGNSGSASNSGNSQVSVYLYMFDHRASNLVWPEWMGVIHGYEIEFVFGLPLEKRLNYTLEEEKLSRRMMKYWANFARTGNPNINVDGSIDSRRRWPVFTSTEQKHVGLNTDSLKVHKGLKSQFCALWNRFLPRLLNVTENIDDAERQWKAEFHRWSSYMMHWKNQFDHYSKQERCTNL
Description: Inhibition of Electric eel AChE using ATCI as substrate incubated for 5 mins followed by substrate addition and measured after 5 mins by spectrophotometric based Ellman's method

With `O=c1c2ccccc2oc2ccc(OCCCCCN3CCCCCC3)cc12` as the compound, how does the Activity (Rattus norvegicus [1]) read?
Its Activity is 118%.

And the inhibition in vivo at 30 mg/kg (Rattus norvegicus [2])?
Its inhibition in vivo at 30 mg/kg is 77.9%.

What about the inhibition [3] of the same compound?
The inhibition was “Active”.

And the inhibition in vivo at 22.5 mg/kg (Rattus norvegicus [4])?
Its inhibition in vivo at 22.5 mg/kg is 19.4%.

What about the inhibition [5] of the same compound?
Its inhibition is “Active”.

What about the Activity (Mus musculus [6]) of the same compound?
The Activity was 95.6%.

What about the Activity (Mus musculus [7]) of the same compound?
Its Activity is 90.6%.

And the inhibition at 10 µM (MAO-A [8])?
The inhibition at 10 µM was < 50%.

What about the inhibition in vivo at 30 mg/kg (Rattus norvegicus [9]) of the same compound?
Its inhibition in vivo at 30 mg/kg is 52.1%.

And the inhibition [10]?
The inhibition was “Active”.

And the Activity (Rattus norvegicus [11])?
The Activity was 96%.

And the inhibition at 1 µM (MAO-A [12])?
Its inhibition at 1 µM is 4%.

What about the ED50 (Mus musculus [13]) of the same compound?
Its ED50 is 24.7 mg/kg.

What about the Activity (Rattus norvegicus [14]) of the same compound?
The Activity was “Dose-dependent effect”.

And the Ki (Histamine H3 receptor)?
The Ki was 170 nM.

What about the Activity (Rattus norvegicus [15]) of the same compound?
Its Activity is 130%.

What about the Activity (Mus musculus [16]) of the same compound?
The Activity was 88.5%.

What about the Activity (Rattus norvegicus [17]) of the same compound?
The Activity was 116%.

And the Activity (Rattus norvegicus [18])?
The Activity was 102.8%.

And the Activity (Mus musculus [19])?
Its Activity is 100%.

And the ED50 (Mus musculus [20])?
Its ED50 is 11.3 mg/kg.

What about the inhibition in vivo at 22.5 mg/kg (Rattus norvegicus [21]) of the same compound?
Its inhibition in vivo at 22.5 mg/kg is 32.8%.

What about the Activity (Mus musculus [22]) of the same compound?
The Activity was 85.9%.

And the Activity (Rattus norvegicus [23])?
Its Activity is 94.6%.

What about the Activity (Mus musculus [24]) of the same compound?
The Activity was “Dose-dependent effect”.

What about the inhibition in vivo at 22.5 mg/kg (Rattus norvegicus [25]) of the same compound?
The inhibition in vivo at 22.5 mg/kg was 26.5%.

What about the IC50 (Acetylcholinesterase) of the same compound?
The IC50 was 180 nM.
